The target in one test is recombinant MNK1 (Homo sapiens (Human), UniProt Q9BUB5). The test can be described thus: MNK Biochemical Enzymatic Assay (ADP-Glo kinase assay), MNK1. The settings on record: 10 nM recombinant MNK1, 300 μM ATP. How it is done: Compounds are screened for MNK inhibition using the ADP-Glo kinase assay kit (Promega, catalogue No. V9101). All kinase reactions are performed in Reaction Buffer E (15 mM HEPES pH7.4, 20 mM NaCl, 1 mM EGTA, 10 mM MgCl2, 0.1 mg/ml BGG, and 0.02% Tween-20). Final MNK 1 reactions contained 10 nM recombinant MNK1 (Life Technologies, PR9138A), 100 μM MNK substrate peptide Ac-TATKSGSTTKNR-NH2 (American Peptide Company), 300 μM ATP, and varying concentrations of the inhibitory compound of interest. Final MNK2 reactions contained 3 nM recombinant MNK2 (Life Technologies, PV5607), 50 μM MNK substrate peptide Ac-TATKSGSTTKNR-NH2 (American Peptide Company), 10 μM ATP, and varying concentrations of the inhibitory compound of interest. Final DMSO concentration in each reaction is 1%.
(§1) Kinase reactions are carried out in 96-well half-area white flat-bottom polystyrene plates in a final volume of 25 μl. MNK1/2 enzymes are pre-incubated with compound and peptide substrate for 5 minutes prior to the addition of ATP. After the addition of ATP, kinase reactions are incubated at room temperature for 40 minutes. Reactions are subsequently stopped by the addition of 25 μl of ADP-Glo Reagent and incubating for an additional 40 minutes. The final luminescent signal used for kinase activity readout is produced by the addition of 45 μl of Kinase Detection Reagent (ADP-Glo kit, Promega) and incubating for 40 minutes. The luminescent signal is detected using a Victor 2 multilabel counter (Perkin Elmer) and the concentration of compound necessary to achieve inhibition of enzyme activity by 50% (IC50) is calculated using signals from an 8-point compound dilution series.
To this end, IC50 values of less than 0.01 μM are labeled as “+++”, from 0.01 to 0.1 μM are labeled as “++”, and greater than 0.1 to 10.0 μM are labeled as “+” (NA means “not available”).
In general terms: ADP-Glo first removes unused ATP, then detects ADP through luciferase.

For the next test, the target named is recombinant MNK2 (Homo sapiens (Human), UniProt Q9HBH9). The test can be described thus: MNK Biochemical Enzymatic Assay (ADP-Glo kinase assay), MNK2. How it is done: Compounds are screened for MNK inhibition using the ADP-Glo kinase assay kit (Promega, catalogue No. V9101). All kinase reactions are performed in Reaction Buffer E (15 mM HEPES pH7.4, 20 mM NaCl, 1 mM EGTA, 10 mM MgCl2, 0.1 mg/ml BGG, and 0.02% Tween-20). […] Final DMSO concentration in each reaction is 1%.
as §1

A further test deals with Phosphorylated eIF4E. In words: peIF4E Signaling Cellular Assay (CisBio peIF4E HTRF). The test is classed as cell-based. The settings on record: cells incubated with compound for 2 hrs at 37° C. How it is done:
Phosphorylated eIF4E is assayed using the CisBio peIF4E HTRF® assay kit (CisBio, catalogue No. 64EF4PEG). Cells are plated in 96-well tissue-culture treated plate in appropriate growth medium (90 μL). Compounds (10×) are diluted using 3-fold serial dilutions in cell culture medium and added to cells. Plates are incubated for 2 hrs at 37° C. The cell supernatant is carefully removed either by aspirating supernatant or by flicking the plate. Immediately 50 μL of supplemented lysis buffer (IX) is added and incubated for at least 30 minutes at room temperature under shaking. After homogenization by pipetting up and down, 16 μL of cell lysate is transferred from the 96-well cell-culture plate to a 384-well small volume white plate, 4 μL of premixed antibody solutions (vol/vol) is prepared in the detection buffer and added. The plate is covered with a plate sealer and incubated overnight at room temperature. The fluorescence emissions at two different wavelengths are read (665 nm and 620 nm) on a Wallac Victor2. Emission ratios are converted into percent inhibitions and imported into GraphPad Prism software. […] IC50 values are determined using a nonlinear regression model available in GraphPad Prism 5.
To this end, IC50 values of less than 0.05 μM are labeled as “+++”, from 0.05 to 1.0 μM are labeled as “++”, greater than 1.0 to 100 μM are labeled as “+”, and NA means “not available”.
A general note: Time-resolved FRET reads energy transfer from a long-lived donor to a nearby acceptor.

Experimental findings from US11014926B2, “Pyrrolo-, pyrazolo-, imidazo-pyrimidine and pyridine compounds that inhibit MNK1 and MNK2” (EFFECTOR THERAPEUTICS, INC., priority 2015, dated 2021) are described below.

Structures are written as SMILES. Like-named read-outs stand apart in the source and are kept apart here.

Broadly, the IC50 is the point on the concentration scale where inhibition reaches its midpoint.

Chain of recombinant MNK1 (Q9BUB5 whole entry): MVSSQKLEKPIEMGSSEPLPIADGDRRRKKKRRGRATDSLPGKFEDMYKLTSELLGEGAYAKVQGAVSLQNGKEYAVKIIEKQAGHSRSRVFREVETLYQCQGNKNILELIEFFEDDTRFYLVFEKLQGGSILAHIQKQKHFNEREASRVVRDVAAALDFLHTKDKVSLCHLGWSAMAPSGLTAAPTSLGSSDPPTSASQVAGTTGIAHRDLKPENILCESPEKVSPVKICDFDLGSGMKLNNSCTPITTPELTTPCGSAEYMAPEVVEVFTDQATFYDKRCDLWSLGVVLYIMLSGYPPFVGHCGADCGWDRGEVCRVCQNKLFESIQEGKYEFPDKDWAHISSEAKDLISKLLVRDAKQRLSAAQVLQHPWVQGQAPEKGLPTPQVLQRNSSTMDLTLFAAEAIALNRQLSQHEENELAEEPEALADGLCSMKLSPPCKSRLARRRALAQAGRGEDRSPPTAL
Chain of recombinant MNK2 (Q9HBH9 whole entry): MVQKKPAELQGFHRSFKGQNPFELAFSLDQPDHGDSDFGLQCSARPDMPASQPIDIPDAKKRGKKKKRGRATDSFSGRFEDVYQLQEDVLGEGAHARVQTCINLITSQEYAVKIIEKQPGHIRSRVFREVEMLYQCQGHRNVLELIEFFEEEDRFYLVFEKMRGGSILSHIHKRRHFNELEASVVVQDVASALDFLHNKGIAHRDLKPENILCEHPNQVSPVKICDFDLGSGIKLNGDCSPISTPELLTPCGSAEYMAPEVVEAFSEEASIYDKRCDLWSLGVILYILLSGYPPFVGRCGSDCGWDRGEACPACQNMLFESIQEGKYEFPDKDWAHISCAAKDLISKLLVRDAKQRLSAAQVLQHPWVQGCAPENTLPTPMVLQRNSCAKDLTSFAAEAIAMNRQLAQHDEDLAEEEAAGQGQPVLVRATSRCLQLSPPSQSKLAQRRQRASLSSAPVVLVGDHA

Turning to `O=C1NCc2cc(-n3ccc4cncnc43)ccc21` [Cpd. No. 1, 5-(7H-pyrrolo[2,3-d]pyrimidin-7-yl)isoindolin-1-one], the IC50 on recombinant MNK1 lay within 100 to 10000 nM; at recombinant MNK2, 100 to 10000 nM; with Phosphorylated eIF4E, 1000 to 100000 nM.

With `Cn1cc(-c2cn(-c3ccc4c(c3)CNC4=O)c3ncncc23)cn1` [Cpd. No. 8, 5-(5-(1-methyl-1H-pyrazol-4-yl)-7H-pyrrolo[2,3-d]pyrimidin-7-yl)isoindolin-1-one], the IC50 at recombinant MNK1 fell in the range of 10 to 100 nM; on recombinant MNK2, 10 to 100 nM; with Phosphorylated eIF4E it was 1000 to 100000 nM.

Take `CC1NC(=O)c2c(Cl)cc(-n3ccc4cncnc43)cc21` (stereo not drawn) [Cpd. No. 17, 7-chloro-3-methyl-5-(7H-pyrrolo [2,3-d]pyrimidin-7-yl) isoindolin-1-one]: the IC50 on recombinant MNK1 was under 10 nM; on recombinant MNK2, 10 to 100 nM; in the test with Phosphorylated eIF4E, 50 to 1000 nM.

For `CC1(C)NC(=O)c2c(Cl)cc(-n3ccc4cncnc43)cc21` [Cpd. No. 18, 7-chloro-3,3-dimethyl-5-(7H-pyrrolo [2,3-d]pyrimidin-7-yl) isoindolin-1-one], the IC50 on recombinant MNK1 is under 10 nM; at recombinant MNK2 (3 nM recombinant MNK2, 10 μM ATP, read-out: IC50 Mnk2), under 10 nM; with Phosphorylated eIF4E, 50 to 1000 nM.

Take `Cc1cc(-n2ccc3cncnc32)cc2c1C(=O)NC2C` (stereo not drawn) [Cpd. No. 22, 3,7-dimethyl-5-(7H-pyrrolo[2,3-d]pyrimidin-7-yl)isoindolin-1-one]: the results for the half-maximal inhibitory concentration (IC50) at recombinant MNK1, on recombinant MNK2 and with Phosphorylated eIF4E were 10 to 100 nM, 10 to 100 nM and 1000 to 100000 nM, respectively.
